Laboratory results from ChEMBL document CHEMBL5665443, “Enzyme Inhibitor Single Concentration assay results for EUbOPEN Chemogenomics Library” (2024).

Legend:
[1] = biological target: T1, Endonuclease III-like protein 1 (Homo sapiens) (UniProt P78549); settings: Hit No;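 also: enzyme assay tracking NTHL1 cutting and release of a quenched double-stranded DNA oligo substrate, read as fluorescence at 594 nm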
T1 sequence (whole entry): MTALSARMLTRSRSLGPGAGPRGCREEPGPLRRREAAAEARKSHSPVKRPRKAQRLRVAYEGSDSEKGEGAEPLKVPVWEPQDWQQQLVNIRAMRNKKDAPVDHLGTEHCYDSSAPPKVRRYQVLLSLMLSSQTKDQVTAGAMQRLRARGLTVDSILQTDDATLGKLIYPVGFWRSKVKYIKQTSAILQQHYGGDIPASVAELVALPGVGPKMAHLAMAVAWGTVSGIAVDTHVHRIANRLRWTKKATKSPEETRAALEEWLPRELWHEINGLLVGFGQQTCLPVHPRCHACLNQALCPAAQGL
Description: Inhibition of NTHL1 by quantifying inhibition of NTHL1-mediated cleavage and dissociation of quenched duplex DNA oligonucleotides, measured as fluorescence at 594 nm.

[2] = biological target: T2, Adenine DNA glycosylase (Homo sapiens) (UniProt Q9UIF7); settings: Hit No;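 also: human MUTYH activity read as 594 nm fluorescence from cleavage and release of a quenched DNA duplex, coupled with APE1 for strand incision, lower signal meaning inhibition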
T2 sequence (whole entry): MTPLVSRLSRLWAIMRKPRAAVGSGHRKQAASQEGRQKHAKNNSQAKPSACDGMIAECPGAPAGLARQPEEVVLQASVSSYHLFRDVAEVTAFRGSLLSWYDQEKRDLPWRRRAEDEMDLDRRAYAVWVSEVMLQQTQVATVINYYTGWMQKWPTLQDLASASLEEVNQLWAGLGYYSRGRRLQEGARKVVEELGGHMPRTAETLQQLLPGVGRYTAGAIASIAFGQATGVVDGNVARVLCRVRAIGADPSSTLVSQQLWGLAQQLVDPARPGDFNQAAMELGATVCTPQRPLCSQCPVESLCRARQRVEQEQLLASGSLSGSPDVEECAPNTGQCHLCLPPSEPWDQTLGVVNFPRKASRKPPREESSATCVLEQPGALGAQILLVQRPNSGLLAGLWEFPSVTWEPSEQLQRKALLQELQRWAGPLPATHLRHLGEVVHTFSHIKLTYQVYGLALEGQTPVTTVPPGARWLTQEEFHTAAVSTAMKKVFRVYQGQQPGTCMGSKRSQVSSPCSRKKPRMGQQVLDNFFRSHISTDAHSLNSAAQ
Description: Inhibition of MUTYH by quantifying inhibition of MUTYH-mediated cleavage and dissociation of quenched duplex DNA oligonucleotides, measured as fluorescence at 594 nm. To generate a functional strand incision and increase turn-over this assay is coupled to APE1.

[3] = biological target: Uracil-DNA glycosylase (Homo sapiens) (UniProt P13051); settings: Hit No;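 also: UNG excision on a quenched double-stranded DNA oligo probe, with APE1 added for strand incision and turnover, read as fluorescence at 594 nm as strands separate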
Chain of Uracil-DNA glycosylase (Homo sapiens) (P13051 whole entry): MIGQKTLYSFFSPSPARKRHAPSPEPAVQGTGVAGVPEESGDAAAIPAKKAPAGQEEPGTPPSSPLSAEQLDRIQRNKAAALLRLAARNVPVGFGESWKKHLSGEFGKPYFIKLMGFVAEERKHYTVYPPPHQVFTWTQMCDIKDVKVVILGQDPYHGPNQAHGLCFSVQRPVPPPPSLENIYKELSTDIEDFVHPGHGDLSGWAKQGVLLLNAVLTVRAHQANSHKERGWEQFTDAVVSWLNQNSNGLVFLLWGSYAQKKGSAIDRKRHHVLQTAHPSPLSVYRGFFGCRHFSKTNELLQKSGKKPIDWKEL
Description: Inhibition of UNG by quantifying inhibition of UNG-mediated cleavage and dissociation of quenched duplex DNA oligonucleotides, measured as fluorescence at 594 nm. To generate a functional strand incision and increase turn-over this assay is coupled to APE1.

[4] = biological target: T3, Endonuclease 8-like 2 (Homo sapiens) (UniProt Q969S2);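 also: fluorescence at 594 nm reports NEIL2 cutting and release of a quenched double-stranded DNA oligo substrate, reduced signal read as inhibition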
T3 sequence (whole entry): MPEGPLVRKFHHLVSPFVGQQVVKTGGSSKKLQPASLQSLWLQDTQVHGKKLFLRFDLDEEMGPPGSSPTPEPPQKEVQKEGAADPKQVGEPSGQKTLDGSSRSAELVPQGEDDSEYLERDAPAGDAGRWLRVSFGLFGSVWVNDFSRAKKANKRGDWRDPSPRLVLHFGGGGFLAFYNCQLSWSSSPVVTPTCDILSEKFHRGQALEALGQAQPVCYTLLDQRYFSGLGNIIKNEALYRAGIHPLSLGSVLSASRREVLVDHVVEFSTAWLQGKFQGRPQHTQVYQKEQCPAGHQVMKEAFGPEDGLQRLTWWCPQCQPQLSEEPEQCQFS
Description: Inhibition of NEIL2 by quantifying inhibition of NEIL2-mediated cleavage and dissociation of quenched duplex DNA oligonucleotides, measured as fluorescence at 594 nm.

[5] = biological target: G/T mismatch-specific thymine DNA glycosylase (Homo sapiens) (UniProt Q13569); settings: Hit No;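 also: human TDG cleavage of quenched duplex DNA oligonucleotides coupled to APE1, strand release read as fluorescence at 594 nm, inhibition of TDG activity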
Chain of G/T mismatch-specific thymine DNA glycosylase (Homo sapiens) (Q13569 whole entry, the tested form may be a part): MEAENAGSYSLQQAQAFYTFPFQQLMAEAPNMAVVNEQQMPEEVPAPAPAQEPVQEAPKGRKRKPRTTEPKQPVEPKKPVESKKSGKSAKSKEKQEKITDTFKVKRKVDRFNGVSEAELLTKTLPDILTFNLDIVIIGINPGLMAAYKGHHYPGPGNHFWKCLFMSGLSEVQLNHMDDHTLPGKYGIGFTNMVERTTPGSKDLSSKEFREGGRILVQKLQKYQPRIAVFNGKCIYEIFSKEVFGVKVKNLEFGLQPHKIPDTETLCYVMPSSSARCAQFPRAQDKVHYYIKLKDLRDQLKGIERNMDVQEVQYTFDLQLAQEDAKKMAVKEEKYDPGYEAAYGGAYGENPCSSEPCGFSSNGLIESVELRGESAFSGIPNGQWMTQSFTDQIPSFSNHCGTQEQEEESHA
Description: Inhibition of TDG by quantifying inhibition of TDG-mediated cleavage and dissociation of quenched duplex DNA oligonucleotides, measured as fluorescence at 594 nm. To generate a functional strand incision and increase turn-over this assay is coupled to APE1.

[6] = biological target: Methyl-CpG-binding domain protein 4 (Homo sapiens) (UniProt O95243); settings: Hit No;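 also: MBD4 activity read as fluorescence at 594 nm from cleavage and release of a quenched duplex DNA oligonucleotide, with APE1 coupled to incise the strand and raise turnover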
Chain of Methyl-CpG-binding domain protein 4 (Homo sapiens) (O95243 whole entry, the tested form may be a part): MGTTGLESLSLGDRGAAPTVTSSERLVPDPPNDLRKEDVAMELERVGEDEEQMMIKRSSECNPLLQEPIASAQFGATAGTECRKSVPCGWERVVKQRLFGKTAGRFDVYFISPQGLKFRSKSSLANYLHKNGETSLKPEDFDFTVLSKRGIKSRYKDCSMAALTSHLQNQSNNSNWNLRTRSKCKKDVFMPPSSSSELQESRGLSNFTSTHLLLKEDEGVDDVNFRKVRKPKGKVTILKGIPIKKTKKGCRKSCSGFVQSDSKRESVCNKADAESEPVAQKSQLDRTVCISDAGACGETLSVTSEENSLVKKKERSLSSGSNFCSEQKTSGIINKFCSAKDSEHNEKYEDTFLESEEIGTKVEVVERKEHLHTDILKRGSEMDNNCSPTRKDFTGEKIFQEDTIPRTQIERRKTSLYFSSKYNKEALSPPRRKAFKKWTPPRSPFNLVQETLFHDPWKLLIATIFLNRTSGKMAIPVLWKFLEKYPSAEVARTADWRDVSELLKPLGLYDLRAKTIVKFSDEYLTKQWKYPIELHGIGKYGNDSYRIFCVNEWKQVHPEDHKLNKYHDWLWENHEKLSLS
Description: Inhibition of MBD4 by quantifying inhibition of MBD4-mediated cleavage and dissociation of quenched duplex DNA oligonucleotides, measured as fluorescence at 594 nm. To generate a functional strand incision and increase turn-over this assay is coupled to APE1.

[7] = biological target: Endonuclease 8-like 1 (Homo sapiens) (UniProt Q96FI4); settings: Hit No;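 also: fluorescence at 594 nm from quenched duplex DNA oligonucleotides released by NEIL1 cleavage and strand separation, reported as reduction of this enzyme activity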
Chain of Endonuclease 8-like 1 (Homo sapiens) (Q96FI4 whole entry): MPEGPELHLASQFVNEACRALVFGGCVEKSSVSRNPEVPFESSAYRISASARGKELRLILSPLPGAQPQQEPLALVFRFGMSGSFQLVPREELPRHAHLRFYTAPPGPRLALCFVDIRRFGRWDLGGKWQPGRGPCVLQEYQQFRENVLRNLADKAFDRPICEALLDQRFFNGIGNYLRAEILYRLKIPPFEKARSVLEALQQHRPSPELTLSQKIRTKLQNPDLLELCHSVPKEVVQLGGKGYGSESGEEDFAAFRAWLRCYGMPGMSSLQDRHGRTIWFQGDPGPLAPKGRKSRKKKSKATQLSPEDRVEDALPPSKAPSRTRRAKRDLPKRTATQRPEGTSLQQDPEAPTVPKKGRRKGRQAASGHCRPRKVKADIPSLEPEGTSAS
Description: Inhibition of NEIL1 by quantifying inhibition of NEIL1-mediated cleavage and dissociation of quenched duplex DNA oligonucleotides, measured as fluorescence at 594 nm.

[8] = biological target: T4, Single-strand selective monofunctional uracil DNA glycosylase (Homo sapiens) (UniProt Q53HV7); settings: Hit No;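 also: enzymatic SMUG1 assay coupled with APE1, reading fluorescence at 594 nm released when a quenched double-stranded DNA oligonucleotide substrate is cleaved and separated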
T4 sequence (whole entry): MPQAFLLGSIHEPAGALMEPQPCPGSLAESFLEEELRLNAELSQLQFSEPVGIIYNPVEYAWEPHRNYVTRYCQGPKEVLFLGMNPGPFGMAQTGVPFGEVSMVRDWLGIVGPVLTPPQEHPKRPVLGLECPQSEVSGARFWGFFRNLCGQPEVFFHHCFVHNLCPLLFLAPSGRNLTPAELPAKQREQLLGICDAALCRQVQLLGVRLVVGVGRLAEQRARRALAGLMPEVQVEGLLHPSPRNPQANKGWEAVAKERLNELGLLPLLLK
Description: Inhibition of SMUG1 by quantifying inhibition of SMUG1-mediated cleavage and dissociation of quenched duplex DNA oligonucleotides, measured as fluorescence at 594 nm. To generate a functional strand incision and increase turn-over this assay is coupled to APE1.

[9] = biological target: N-glycosylase/DNA lyase (Homo sapiens) (UniProt O15527); settings: Hit No;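 also: OGG1 cleavage of a quenched duplex DNA oligonucleotide, coupled to APE1 for strand incision, read as fluorescence at 594 nm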
Chain of N-glycosylase/DNA lyase (Homo sapiens) (O15527 whole entry): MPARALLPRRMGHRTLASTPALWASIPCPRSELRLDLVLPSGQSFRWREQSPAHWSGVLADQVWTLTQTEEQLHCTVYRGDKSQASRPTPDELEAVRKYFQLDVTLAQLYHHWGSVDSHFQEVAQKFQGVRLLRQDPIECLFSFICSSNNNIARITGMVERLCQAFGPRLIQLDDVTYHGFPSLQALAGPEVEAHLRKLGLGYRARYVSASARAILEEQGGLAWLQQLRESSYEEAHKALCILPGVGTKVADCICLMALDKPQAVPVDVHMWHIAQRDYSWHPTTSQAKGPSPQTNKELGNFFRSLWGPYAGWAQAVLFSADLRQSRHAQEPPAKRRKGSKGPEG
Description: Inhibition of OGG1 by quantifying inhibition of OGG1-mediated cleavage and dissociation of quenched duplex DNA oligonucleotides, measured as fluorescence at 594 nm. To generate a functional strand incision and increase turn-over this assay is coupled to APE1.

[10] = Compound Concentration 10.0 uM, Hit No
[11] = Compound Concentration 1.0 uM, Hit No

CC(C)c1cc(Oc2c(Cl)cc(-n3nc(C#N)c(=O)[nH]c3=O)cc2Cl)n[nH]c1=O
inhibition ([1]; Compound Concentration 10.0 uM): 7.26%
inhibition ([2]; Compound Concentration 10.0 uM): 14%
inhibition ([3]; Compound Concentration 10.0 uM): -0.0293%
inhibition [4, 10]: 7.67%
inhibition ([5]; Compound Concentration 10.0 uM): 50.8%
inhibition ([6]; Compound Concentration 10.0 uM): 53.3%
inhibition ([7]; Compound Concentration 10.0 uM): -7.26%
inhibition ([8]; Compound Concentration 10.0 uM): 5.92%
inhibition ([9]; Compound Concentration 10.0 uM): 28.8%

CCC(=O)N1CCN(c2ccc(-n3c(=O)ccc4cnc5ccc(-c6cnc7ccccc7c6)cc5c43)cc2C(F)(F)F)CC1
inhibition ([1]; Compound Concentration 1.0 uM): 6.36%
inhibition ([2]; Compound Concentration 1.0 uM): 15.3%
inhibition ([3]; Compound Concentration 1.0 uM): 3.95%
inhibition [4, 11]: -7.57%
inhibition ([5]; Compound Concentration 1.0 uM): 59%
inhibition ([6]; Compound Concentration 1.0 uM): -7.49%
inhibition ([7]; Compound Concentration 1.0 uM): -7.39%
inhibition ([8]; Compound Concentration 1.0 uM): 24.3%
inhibition ([9]; Compound Concentration 1.0 uM): 10.6%

Fc1ccc(-c2c3cccc(C(F)(F)F)c3nn2Cc2ccc(F)cc2Cl)cc1
inhibition ([1]; Compound Concentration 10.0 uM): -1.29%
inhibition ([2]; Compound Concentration 10.0 uM): 1.43%
inhibition ([3]; Compound Concentration 10.0 uM): 4.08%
inhibition [4, 10]: -0.489%
inhibition ([5]; Compound Concentration 10.0 uM): 53.1%
inhibition ([6]; Compound Concentration 10.0 uM): 53.9%
inhibition ([7]; Compound Concentration 10.0 uM): -7.41%
inhibition ([8]; Compound Concentration 10.0 uM): 12.2%
inhibition ([9]; Compound Concentration 10.0 uM): 8%

COc1ncc(-c2ccc3nccc(-c4ccnnc4)c3c2)cc1NS(=O)(=O)c1ccc(F)cc1F
inhibition ([1]; Compound Concentration 1.0 uM): 9.15%
inhibition ([2]; Compound Concentration 1.0 uM): 13.2%
inhibition ([3]; Compound Concentration 1.0 uM): -3.82%
inhibition [4, 11]: 15.6%
inhibition ([5]; Compound Concentration 1.0 uM): 51.7%
inhibition ([6]; Compound Concentration 1.0 uM): 24%
inhibition ([7]; Compound Concentration 1.0 uM): -9.77%
inhibition ([8]; Compound Concentration 1.0 uM): -0.754%
inhibition ([9]; Compound Concentration 1.0 uM): 1.04%

COc1cc2nc(N3CCN(C(=O)COc4c(OC)cccc4C(C)C)CC3)nc(N)c2cc1OC
inhibition ([1]; Compound Concentration 10.0 uM): 17.9%
inhibition ([2]; Compound Concentration 10.0 uM): -1.51%
inhibition ([3]; Compound Concentration 10.0 uM): 3.87%
inhibition ([4]; Compound Concentration 10.0 uM, Hit Yes): 50.6%
inhibition ([5]; Compound Concentration 10.0 uM): 4.22%
inhibition ([6]; Compound Concentration 10.0 uM): -7.62%
inhibition ([7]; Compound Concentration 10.0 uM): 10.1%
inhibition ([8]; Compound Concentration 10.0 uM): -5.21%
inhibition ([9]; Compound Concentration 10.0 uM): -9.97%

Cc1ccc(-c2cnc([C@@]3(O)CC[C@H](C(=O)O)C(C)(C)C3)s2)cc1Nc1cccc(C(F)(F)F)n1
inhibition ([1]; Compound Concentration 1.0 uM): -6.89%
inhibition ([1]; Compound Concentration 10.0 uM): -1.95%
inhibition ([2]; Compound Concentration 10.0 uM): 13.4%
inhibition ([3]; Compound Concentration 1.0 uM): -2.23%
inhibition ([3]; Compound Concentration 10.0 uM): 2.77%
inhibition [4, 11]: 1.58%
inhibition ([5]; Compound Concentration 1.0 uM): 36.9%
inhibition ([5]; Compound Concentration 10.0 uM): 58.3%
inhibition ([6]; Compound Concentration 1.0 uM): 1.64%
inhibition ([6]; Compound Concentration 10.0 uM): 60.9%
inhibition ([7]; Compound Concentration 1.0 uM): -1.05%
inhibition ([7]; Compound Concentration 10.0 uM): -8.92%
inhibition ([8]; Compound Concentration 1.0 uM): 6.55%
inhibition ([8]; Compound Concentration 10.0 uM): 11.6%
inhibition ([9]; Compound Concentration 10.0 uM): 5.44%

N#Cc1cnc(Nc2cc(NC[C@H]3CNCCO3)c(C(F)(F)F)cn2)cn1
inhibition ([1]; Compound Concentration 1.0 uM): -0.61%
inhibition ([2]; Compound Concentration 1.0 uM): 2.62%
inhibition ([3]; Compound Concentration 1.0 uM): 6.29%
inhibition [4, 11]: -5.15%
inhibition ([5]; Compound Concentration 1.0 uM): 53.2%
inhibition ([6]; Compound Concentration 1.0 uM): 13.8%
inhibition ([7]; Compound Concentration 1.0 uM): -5.15%
inhibition ([8]; Compound Concentration 1.0 uM): 34.2%
inhibition ([9]; Compound Concentration 1.0 uM): 7.47%

COc1ccccc1-c1cc(Nc2cccc(CS(N)(=O)=O)c2)ncn1
inhibition ([1]; Compound Concentration 10.0 uM): 7.06%
inhibition ([2]; Compound Concentration 10.0 uM): 4.56%
inhibition ([3]; Compound Concentration 10.0 uM): 3.59%
inhibition [4, 10]: 4%
inhibition ([5]; Compound Concentration 10.0 uM): 35.8%
inhibition ([6]; Compound Concentration 10.0 uM): -4.72%
inhibition ([7]; Compound Concentration 10.0 uM): -4.75%
inhibition ([8]; Compound Concentration 10.0 uM): 19.3%
inhibition ([9]; Compound Concentration 10.0 uM): 3.23%

O=C(NNS(=O)(=O)c1ccccc1F)c1cc(F)cc(-c2ccccn2)c1
inhibition ([1]; Compound Concentration 10.0 uM): 11.9%
inhibition ([2]; Compound Concentration 10.0 uM): 3.72%
inhibition ([3]; Compound Concentration 10.0 uM): 6.14%
inhibition [4, 10]: 3.34%
inhibition ([5]; Compound Concentration 10.0 uM): 49.9%
inhibition ([6]; Compound Concentration 10.0 uM): 80.8%
inhibition ([7]; Compound Concentration 10.0 uM): 0.316%
inhibition ([8]; Compound Concentration 10.0 uM): 15.4%
inhibition ([9]; Compound Concentration 10.0 uM): 3.57%

NC1(c2ccc(-c3nc4c(O)ccnn4c3-c3ccccc3)cc2)CCC1
inhibition ([1]; Compound Concentration 1.0 uM): -7.86%
inhibition ([2]; Compound Concentration 1.0 uM): 23.6%
inhibition ([2]; Compound Concentration 10.0 uM): 14.3%
inhibition ([3]; Compound Concentration 1.0 uM): 7.66%
inhibition ([3]; Compound Concentration 10.0 uM): -0.0214%
inhibition [4, 11]: -0.489%
inhibition [4, 10]: -3.27%
inhibition ([5]; Compound Concentration 1.0 uM): 59.1%
inhibition ([5]; Compound Concentration 10.0 uM): 52.1%
inhibition ([6]; Compound Concentration 1.0 uM): 76.1%
inhibition ([6]; Compound Concentration 10.0 uM): 29%
inhibition ([7]; Compound Concentration 1.0 uM): -7.26%
inhibition ([7]; Compound Concentration 10.0 uM): -6.47%
inhibition ([8]; Compound Concentration 1.0 uM): 19.9%
inhibition ([8]; Compound Concentration 10.0 uM): 19.3%
inhibition ([9]; Compound Concentration 1.0 uM): 10.4%

CCNC(=O)N1CCCN(c2ccc(C(=O)NCCc3ccc(Cl)cc3Cl)cc2NC(=O)c2cccc(Cl)c2)CC1
inhibition ([1]; Compound Concentration 10.0 uM): -5.21%
inhibition ([2]; Compound Concentration 10.0 uM): 5.24%
inhibition ([3]; Compound Concentration 10.0 uM): 3.51%
inhibition [4, 10]: 3.98%
inhibition ([5]; Compound Concentration 10.0 uM): 3.38%
inhibition ([6]; Compound Concentration 10.0 uM): -1.37%
inhibition ([7]; Compound Concentration 10.0 uM): 3.27%
inhibition ([8]; Compound Concentration 10.0 uM): 5.69%
inhibition ([9]; Compound Concentration 10.0 uM): -8.02%

C[C@@H]1CN(c2cc(-c3nn(C)c4ccc(OC5(C)CC5)cc34)ncn2)C[C@H](C)O1
inhibition ([1]; Compound Concentration 10.0 uM): -7.86%
inhibition ([2]; Compound Concentration 1.0 uM): -9.65%
inhibition ([2]; Compound Concentration 10.0 uM): -0.542%
inhibition ([3]; Compound Concentration 1.0 uM): -5.93%
inhibition ([3]; Compound Concentration 10.0 uM): 4.62%
inhibition [4, 11]: -5.15%
inhibition [4, 10]: 1.04%
inhibition ([5]; Compound Concentration 1.0 uM): 34.4%
inhibition ([5]; Compound Concentration 10.0 uM): 63%
inhibition ([6]; Compound Concentration 1.0 uM): 101%
inhibition ([6]; Compound Concentration 10.0 uM): 67.5%
inhibition ([7]; Compound Concentration 1.0 uM): -5.67%
inhibition ([7]; Compound Concentration 10.0 uM): 4.71%
inhibition ([8]; Compound Concentration 1.0 uM): 3.32%
inhibition ([8]; Compound Concentration 10.0 uM): 15.6%
inhibition ([9]; Compound Concentration 1.0 uM): 11.8%

CC(C)(O)CNc1ncc(-c2ccnc(Nc3ccnc(Cl)c3)n2)c(CC2CC2)n1
inhibition ([1]; Compound Concentration 10.0 uM): 5.67%
inhibition ([2]; Compound Concentration 10.0 uM): 0.0658%
inhibition ([3]; Compound Concentration 10.0 uM): -2.03%
inhibition [4, 10]: -9.73%
inhibition ([5]; Compound Concentration 10.0 uM): 44.6%
inhibition ([6]; Compound Concentration 10.0 uM): -8.47%
inhibition ([7]; Compound Concentration 10.0 uM): -7.52%
inhibition ([8]; Compound Concentration 10.0 uM): 21.2%
inhibition ([9]; Compound Concentration 10.0 uM): -4.97%

O=C(NOCC1CC1)c1ccc(F)c(F)c1Nc1ccc(I)cc1Cl
inhibition ([1]; Compound Concentration 1.0 uM): 15.4%
inhibition ([2]; Compound Concentration 1.0 uM): 4.86%
inhibition ([3]; Compound Concentration 1.0 uM): -3%
inhibition [4, 11]: -7.84%
inhibition ([5]; Compound Concentration 1.0 uM): 57%
inhibition ([6]; Compound Concentration 1.0 uM): 41.9%
inhibition ([7]; Compound Concentration 1.0 uM): -9.77%
inhibition ([8]; Compound Concentration 1.0 uM): 8.89%
inhibition ([9]; Compound Concentration 1.0 uM): 1.82%
